Where two headings read alike, the source gives them in different places.
How the values were obtained:
ABL1(Q252H) = ABL1(Q252H) (Homo sapiens, UniProt P00519, Q252H); conditions: 1 µM, binder
BMPR1B = BMPR1B (Homo sapiens, UniProt O00238); conditions: 1 µM; binder
CAMK1 = CAMK1 (Homo sapiens, UniProt Q14012); conditions: 1 µM; binder
CAMK2D = CAMK2D (Homo sapiens, UniProt Q13557); conditions: 1 µM; binder
CDC2L1 = CDC2L1 (Homo sapiens, UniProt P21127); conditions: 1 µM; binder
CDK9 = CDK9 (Homo sapiens, UniProt P50750); conditions: 1 µM; binder
CDKL1 = CDKL1 (Homo sapiens, UniProt Q00532); conditions: 1 µM; binder
EGFR(L858R) = EGFR(L858R) (Homo sapiens, UniProt P00533, L858R); conditions: 1 µM; binder
EPHA5 = EPHA5 (Homo sapiens, UniProt P54756); conditions: 1 µM; binder
EPHA5, sequence (P54756 whole entry): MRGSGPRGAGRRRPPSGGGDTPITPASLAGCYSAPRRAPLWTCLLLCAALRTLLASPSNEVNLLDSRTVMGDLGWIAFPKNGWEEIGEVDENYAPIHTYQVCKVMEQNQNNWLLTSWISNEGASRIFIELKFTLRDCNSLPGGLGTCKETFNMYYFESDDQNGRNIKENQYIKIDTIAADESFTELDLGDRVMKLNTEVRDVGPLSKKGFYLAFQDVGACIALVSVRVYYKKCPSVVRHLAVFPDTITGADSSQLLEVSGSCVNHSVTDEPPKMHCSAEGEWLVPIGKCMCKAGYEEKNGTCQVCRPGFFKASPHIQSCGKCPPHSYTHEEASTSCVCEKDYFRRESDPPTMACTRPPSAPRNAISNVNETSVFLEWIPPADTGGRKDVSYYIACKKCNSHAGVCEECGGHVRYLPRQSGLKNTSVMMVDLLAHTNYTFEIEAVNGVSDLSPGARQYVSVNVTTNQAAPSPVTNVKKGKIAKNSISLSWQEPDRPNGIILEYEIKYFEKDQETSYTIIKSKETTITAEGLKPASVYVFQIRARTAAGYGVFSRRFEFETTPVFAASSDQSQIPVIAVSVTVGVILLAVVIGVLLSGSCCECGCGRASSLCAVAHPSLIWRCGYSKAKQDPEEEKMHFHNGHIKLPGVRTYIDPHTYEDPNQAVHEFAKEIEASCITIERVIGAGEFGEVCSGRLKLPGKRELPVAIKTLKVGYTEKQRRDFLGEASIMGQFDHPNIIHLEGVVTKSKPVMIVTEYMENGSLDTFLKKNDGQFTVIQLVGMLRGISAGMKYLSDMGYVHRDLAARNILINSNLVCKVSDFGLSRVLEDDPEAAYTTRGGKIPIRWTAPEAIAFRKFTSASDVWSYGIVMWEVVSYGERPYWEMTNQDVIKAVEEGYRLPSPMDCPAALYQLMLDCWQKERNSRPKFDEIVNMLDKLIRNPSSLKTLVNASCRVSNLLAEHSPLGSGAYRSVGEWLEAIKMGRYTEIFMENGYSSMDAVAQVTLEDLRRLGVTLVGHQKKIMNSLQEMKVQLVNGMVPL

EPHB1 = EPHB1 (Homo sapiens, UniProt P54762); conditions: 1 µM; binder
FLT3(N841I) = FLT3(N841I) (Homo sapiens, UniProt P36888, N841I); conditions: 1 µM; binder
FYN = FYN (Homo sapiens, UniProt P06241); conditions: 1 µM; binder
IGF1R = IGF1R (Homo sapiens, UniProt P08069); conditions: 1 µM; binder
IKK-epsilon = IKK-epsilon (Homo sapiens, UniProt Q14164); conditions: 1 µM; binder
IKK-epsilon, sequence (Q14164 whole entry): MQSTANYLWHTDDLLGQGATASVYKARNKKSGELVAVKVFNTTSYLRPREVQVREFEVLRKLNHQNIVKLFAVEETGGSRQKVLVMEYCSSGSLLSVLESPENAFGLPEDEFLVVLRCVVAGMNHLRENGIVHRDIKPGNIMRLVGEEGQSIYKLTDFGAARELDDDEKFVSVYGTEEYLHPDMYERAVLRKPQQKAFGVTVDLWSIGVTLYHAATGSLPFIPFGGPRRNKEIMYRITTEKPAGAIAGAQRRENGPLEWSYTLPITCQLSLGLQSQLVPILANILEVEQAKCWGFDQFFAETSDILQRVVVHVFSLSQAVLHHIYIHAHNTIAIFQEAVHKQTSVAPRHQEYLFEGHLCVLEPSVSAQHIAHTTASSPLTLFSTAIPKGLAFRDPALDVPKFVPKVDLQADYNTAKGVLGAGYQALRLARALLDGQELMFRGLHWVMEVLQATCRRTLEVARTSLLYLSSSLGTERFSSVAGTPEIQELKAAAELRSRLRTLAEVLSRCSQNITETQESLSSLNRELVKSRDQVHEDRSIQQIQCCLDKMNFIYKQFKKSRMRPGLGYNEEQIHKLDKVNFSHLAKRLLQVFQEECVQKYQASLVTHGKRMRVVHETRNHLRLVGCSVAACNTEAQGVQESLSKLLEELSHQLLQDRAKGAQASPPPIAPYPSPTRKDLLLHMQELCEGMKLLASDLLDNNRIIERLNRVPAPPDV

IRAK3 = IRAK3 (Homo sapiens, UniProt Q9Y616); conditions: 1 µM; binder
LRRK2 = LRRK2 (Homo sapiens, UniProt Q5S007); conditions: 1 µM; binder
MAK = MAK (Homo sapiens, UniProt P20794); conditions: 1 µM; binder
MAP3K3 = MAP3K3 (Homo sapiens, UniProt Q99759); conditions: 1 µM; binder
MAP3K3, sequence (Q99759 whole entry): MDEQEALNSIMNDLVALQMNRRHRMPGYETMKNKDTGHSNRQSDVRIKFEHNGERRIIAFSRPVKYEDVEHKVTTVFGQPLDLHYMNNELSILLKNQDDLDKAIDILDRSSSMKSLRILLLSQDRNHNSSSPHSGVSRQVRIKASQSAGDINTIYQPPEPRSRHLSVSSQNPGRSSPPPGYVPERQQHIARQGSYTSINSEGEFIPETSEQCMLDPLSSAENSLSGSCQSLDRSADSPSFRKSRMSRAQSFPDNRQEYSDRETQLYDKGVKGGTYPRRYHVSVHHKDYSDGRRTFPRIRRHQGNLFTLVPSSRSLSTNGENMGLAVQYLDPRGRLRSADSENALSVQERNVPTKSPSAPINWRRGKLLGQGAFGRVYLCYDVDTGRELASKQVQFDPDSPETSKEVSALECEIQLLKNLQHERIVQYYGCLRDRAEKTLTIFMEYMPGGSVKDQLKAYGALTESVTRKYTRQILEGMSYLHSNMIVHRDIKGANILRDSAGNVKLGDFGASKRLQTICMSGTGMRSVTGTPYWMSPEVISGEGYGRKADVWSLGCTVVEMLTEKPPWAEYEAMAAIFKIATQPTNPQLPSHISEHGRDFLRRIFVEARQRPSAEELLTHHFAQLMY

MAST1 = MAST1 (Homo sapiens, UniProt Q9Y2H9); conditions: 1 µM; binder
MYO3B = MYO3B (Homo sapiens, UniProt Q8WXR4); conditions: 1 µM; binder
MYO3B, sequence (Q8WXR4 whole entry): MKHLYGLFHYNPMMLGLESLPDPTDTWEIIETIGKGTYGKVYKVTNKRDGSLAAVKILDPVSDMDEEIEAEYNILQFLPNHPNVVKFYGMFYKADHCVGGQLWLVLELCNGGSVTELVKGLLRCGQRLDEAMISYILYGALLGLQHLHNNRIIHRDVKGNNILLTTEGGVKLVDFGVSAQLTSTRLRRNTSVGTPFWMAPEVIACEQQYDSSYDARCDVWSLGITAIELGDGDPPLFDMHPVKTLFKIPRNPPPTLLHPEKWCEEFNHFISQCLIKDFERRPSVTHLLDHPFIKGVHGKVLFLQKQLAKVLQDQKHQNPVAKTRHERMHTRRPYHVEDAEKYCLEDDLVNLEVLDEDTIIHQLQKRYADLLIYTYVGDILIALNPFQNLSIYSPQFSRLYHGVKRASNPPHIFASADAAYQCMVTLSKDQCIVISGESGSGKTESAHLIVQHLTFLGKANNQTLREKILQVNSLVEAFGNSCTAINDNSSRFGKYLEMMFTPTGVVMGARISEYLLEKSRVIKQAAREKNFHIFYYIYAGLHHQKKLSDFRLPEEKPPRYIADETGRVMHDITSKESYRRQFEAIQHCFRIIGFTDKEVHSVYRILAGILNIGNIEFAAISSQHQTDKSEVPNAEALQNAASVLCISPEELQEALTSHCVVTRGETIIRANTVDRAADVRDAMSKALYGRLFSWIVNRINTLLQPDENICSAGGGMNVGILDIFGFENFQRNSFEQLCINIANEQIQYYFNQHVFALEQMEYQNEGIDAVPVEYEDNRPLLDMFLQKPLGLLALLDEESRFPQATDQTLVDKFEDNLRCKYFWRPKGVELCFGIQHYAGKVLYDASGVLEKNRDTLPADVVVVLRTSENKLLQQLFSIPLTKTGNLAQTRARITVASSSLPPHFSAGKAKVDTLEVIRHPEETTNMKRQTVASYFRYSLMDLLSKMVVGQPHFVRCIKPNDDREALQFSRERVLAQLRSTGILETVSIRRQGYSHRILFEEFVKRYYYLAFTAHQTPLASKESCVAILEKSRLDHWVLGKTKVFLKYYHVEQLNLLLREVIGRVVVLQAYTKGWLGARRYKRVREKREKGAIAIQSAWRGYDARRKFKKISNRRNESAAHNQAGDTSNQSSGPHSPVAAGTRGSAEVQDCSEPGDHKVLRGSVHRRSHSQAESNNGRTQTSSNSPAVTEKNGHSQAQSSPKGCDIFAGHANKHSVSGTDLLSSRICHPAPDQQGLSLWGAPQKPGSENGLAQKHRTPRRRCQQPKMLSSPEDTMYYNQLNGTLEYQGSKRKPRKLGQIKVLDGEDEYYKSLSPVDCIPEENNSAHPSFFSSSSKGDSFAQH

PAK2 = PAK2 (Homo sapiens, UniProt Q13177); conditions: 1 µM; binder
PCTK2 = PCTK2 (Homo sapiens, UniProt Q00537); conditions: 1 µM; binder
PDGFRB = PDGFRB (Homo sapiens, UniProt P09619); conditions: 1 µM; binder
PLK4 = PLK4 (Homo sapiens, UniProt O00444); conditions: 1 µM; binder
PRKCE = PRKCE (Homo sapiens, UniProt Q02156); conditions: 1 µM; binder
PRP4 = PRP4 (Homo sapiens, UniProt Q13523); conditions: 1 µM; binder
RPS6KA5 = RPS6KA5 (Homo sapiens, UniProt O75582); conditions: Kin.Dom.1 N-terminal; binder
SNARK = SNARK (Homo sapiens, UniProt Q9H093); conditions: 1 µM; binder
TYRO3 = TYRO3 (Homo sapiens, UniProt Q06418); conditions: 1 µM; binder
TYRO3, sequence (Q06418 whole entry): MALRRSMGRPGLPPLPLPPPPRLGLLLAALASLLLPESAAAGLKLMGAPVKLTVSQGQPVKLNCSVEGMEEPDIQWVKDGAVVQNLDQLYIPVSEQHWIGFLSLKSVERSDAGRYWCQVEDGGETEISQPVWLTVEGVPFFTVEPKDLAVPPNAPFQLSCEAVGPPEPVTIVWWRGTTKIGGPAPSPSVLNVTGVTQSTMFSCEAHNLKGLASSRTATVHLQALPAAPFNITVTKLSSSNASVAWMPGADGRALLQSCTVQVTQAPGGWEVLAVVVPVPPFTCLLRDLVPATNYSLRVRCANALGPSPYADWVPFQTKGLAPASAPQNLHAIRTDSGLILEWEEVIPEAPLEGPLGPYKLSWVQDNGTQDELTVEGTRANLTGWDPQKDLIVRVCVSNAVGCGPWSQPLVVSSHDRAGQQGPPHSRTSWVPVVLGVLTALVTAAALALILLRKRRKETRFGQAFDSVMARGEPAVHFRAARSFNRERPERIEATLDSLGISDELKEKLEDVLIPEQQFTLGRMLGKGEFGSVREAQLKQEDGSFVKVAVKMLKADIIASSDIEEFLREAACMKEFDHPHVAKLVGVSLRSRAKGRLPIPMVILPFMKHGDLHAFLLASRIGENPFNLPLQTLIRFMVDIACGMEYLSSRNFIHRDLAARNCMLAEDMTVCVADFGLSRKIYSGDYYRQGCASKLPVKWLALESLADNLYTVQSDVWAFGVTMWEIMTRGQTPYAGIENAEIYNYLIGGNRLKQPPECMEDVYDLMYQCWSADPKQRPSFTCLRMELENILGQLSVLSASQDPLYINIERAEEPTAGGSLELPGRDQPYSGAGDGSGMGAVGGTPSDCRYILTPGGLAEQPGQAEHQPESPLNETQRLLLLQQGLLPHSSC

WEE1 = WEE1 (Homo sapiens, UniProt P30291); conditions: 1 µM; binder

CAMK1, sequence (Q14012 whole entry): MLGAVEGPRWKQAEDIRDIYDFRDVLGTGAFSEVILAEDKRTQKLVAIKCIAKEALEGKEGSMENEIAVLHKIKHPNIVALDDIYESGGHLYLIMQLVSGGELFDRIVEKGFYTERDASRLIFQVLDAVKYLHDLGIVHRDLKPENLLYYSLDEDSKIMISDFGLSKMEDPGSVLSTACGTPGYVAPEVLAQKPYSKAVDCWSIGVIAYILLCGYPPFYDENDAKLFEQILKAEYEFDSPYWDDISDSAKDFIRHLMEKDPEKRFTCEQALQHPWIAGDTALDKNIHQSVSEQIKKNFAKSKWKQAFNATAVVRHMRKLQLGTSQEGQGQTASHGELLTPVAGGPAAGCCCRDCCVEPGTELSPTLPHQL

SMILES: CNc1ncc2cc(-c3ccc(-c4cccc(C)n4)cc3Cl)c(=O)n(C[C@H]3OC[C@H](N)CO3)c2n1 [compound 6, G-5555]
- Percent Control (ABL1(Q252H); nonphosphorylated): 75%
- Percent Control (ABL1(Q252H); phosphorylated): 100%
- Percent Control (BMPR1B): 96%
- Percent Control (CAMK1): 59%
- Percent Control (CAMK2D): 100%
- Percent Control (CDC2L1): 97%
- Percent Control (CDK9): 100%
- Percent Control (CDKL1): 100%
- Percent Control (EGFR(L858R)): 85%
- Percent Control (EPHA5): 100%
- Percent Control (EPHB1): 100%
- Percent Control (FLT3(N841I)): 97%
- Percent Control (FYN): 87%
- Percent Control (IGF1R): 100%
- Percent Control (IKK-epsilon): 78%
- Percent Control (IRAK3): 92%
- Percent Control (LRRK2): 100%
- Percent Control (MAK): 100%
- Percent Control (MAP3K3): 23%
- Percent Control (MAST1): 0.4%
- Percent Control (MYO3B): 57%
- Percent Control (PAK2): 0%
- Percent Control (PCTK2): 100%
- Percent Control (PDGFRB): 84%
- Percent Control (PLK4): 67%
- Percent Control (PRKCE): 71%
- Percent Control (PRP4): 95%
- Percent Control (RPS6KA5): 100%
- Percent Control (SNARK): 2%
- Percent Control (TYRO3): 92%
- Percent Control (WEE1): 100%
